Calls of active or inactive are those of the source. Rule as the data show it, for most assays here: actives have a measured EC50 and inactives only a lower limit.
How the values were obtained:
[1] = NIH-3T3 fibroblast cytotoxicity, dose response, cytotoxicity control, cell-based, fluorescence, Alamar Blue, secondary assay (AID 2327); type: functional;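 also: NIH-3T3 mouse fibroblasts cultured with fluconazole at 8 µg/mL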
[2] = fluconazole-exposed Candida albicans growth modulators – fluorescence, retest, confirmation (AID 2467); type: functional, cell-based
[3] = biological target: T1, Calpain-2 catalytic subunit (Sus scrofa, UniProt P43367); test: m-calpain protease blockers, concentration series – biochemical, fluorogenic peptide substrate, dose response (AID 1420); type: functional
T1 sequence (P43367 whole entry): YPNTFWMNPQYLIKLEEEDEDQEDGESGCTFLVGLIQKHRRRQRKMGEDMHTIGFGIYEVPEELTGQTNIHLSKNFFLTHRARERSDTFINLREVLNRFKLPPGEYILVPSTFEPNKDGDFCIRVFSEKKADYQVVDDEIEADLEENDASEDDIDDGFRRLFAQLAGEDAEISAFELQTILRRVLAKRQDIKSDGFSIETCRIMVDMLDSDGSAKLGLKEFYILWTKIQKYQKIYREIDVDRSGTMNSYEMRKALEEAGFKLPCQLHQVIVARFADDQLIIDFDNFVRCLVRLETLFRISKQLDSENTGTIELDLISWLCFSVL

[4] = biological target: Luciferin 4-monooxygenase (Photinus pyralis, UniProt P08659); test: inhibition of purified Photinus pyralis luciferase – biochemical, luminescence, dose response (AID 1891)
[5] = Luminescence Cell-Based Dose Confirmation HTS to Identify Inhibitors of Platelet Dense Granule Release. [Related pubchem assays: 1663 (Primary HTS), 1678 (Summary of Project)]; type: functional
Fatty acid synthase [6] = biological target: T2, Fatty acid synthase (Homo sapiens, UniProt P49327); test: inhibition of human FAS-TE enzyme activity – biochemical, endpoint fluorescence intensity, uHTS hits, dose response (AID 624327); type: functional;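 also: fluorescence from hydrolysis of an O-methyl fluorescein acyl ester substrate by the enzyme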
Fatty acid synthase [7] = biological target: T2, Fatty acid synthase; test: inhibition of human FAS-TE enzyme activity – biochemical, kinetic fluorescence intensity, dose response (AID 624326); type: functional;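 also: rate of fluorescence rise from hydrolysis of a fluorogenic O-methyl fluorescein ester substrate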
[8] = Luminescence Cell-Based Dose Confirmation HTS to Identify Activators of 5'UTR Stem-Loop Driven Alpha-Synuclein mRNA Translation in H4 Neuroglioblastoma Cells. [Related pubchem assays: 1829 (Project Summary), 1814 (Primary HTS)]; type: functional
[9] = Luminescence Cell-Based Dose Response HTS to Identify Activators of Luciferase Translation or Activity in H4 […] Cells. [Related pubchem assays: 1829 (Project Summary), 1814 (Primary HTS)]; type: functional
H4 = test: Luminescence Cell-Based Dose Response HTS to Identify Activators of 5'UTR Stem-Loop Driven Prion Protein mRNA Translation in H4 Neuroglioblastoma Cells. [Related pubchem assays: 1829 (Project Summary), 1814 (Primary HTS)]; type: functional; details: Homo sapiens
[10] = microbe, parasite or virus in culture; type: functional; details: Mycobacterium tuberculosis
[11] = biological target: T3, Replicative DNA helicase DnaB (Mycobacterium tuberculosis, UniProt P9WMR3); test: DnaB intein splicing inhibitors, dose response, biochemical, cell-free fluorescence (AID 449749); type: functional
T3 sequence (P9WMR3 whole entry): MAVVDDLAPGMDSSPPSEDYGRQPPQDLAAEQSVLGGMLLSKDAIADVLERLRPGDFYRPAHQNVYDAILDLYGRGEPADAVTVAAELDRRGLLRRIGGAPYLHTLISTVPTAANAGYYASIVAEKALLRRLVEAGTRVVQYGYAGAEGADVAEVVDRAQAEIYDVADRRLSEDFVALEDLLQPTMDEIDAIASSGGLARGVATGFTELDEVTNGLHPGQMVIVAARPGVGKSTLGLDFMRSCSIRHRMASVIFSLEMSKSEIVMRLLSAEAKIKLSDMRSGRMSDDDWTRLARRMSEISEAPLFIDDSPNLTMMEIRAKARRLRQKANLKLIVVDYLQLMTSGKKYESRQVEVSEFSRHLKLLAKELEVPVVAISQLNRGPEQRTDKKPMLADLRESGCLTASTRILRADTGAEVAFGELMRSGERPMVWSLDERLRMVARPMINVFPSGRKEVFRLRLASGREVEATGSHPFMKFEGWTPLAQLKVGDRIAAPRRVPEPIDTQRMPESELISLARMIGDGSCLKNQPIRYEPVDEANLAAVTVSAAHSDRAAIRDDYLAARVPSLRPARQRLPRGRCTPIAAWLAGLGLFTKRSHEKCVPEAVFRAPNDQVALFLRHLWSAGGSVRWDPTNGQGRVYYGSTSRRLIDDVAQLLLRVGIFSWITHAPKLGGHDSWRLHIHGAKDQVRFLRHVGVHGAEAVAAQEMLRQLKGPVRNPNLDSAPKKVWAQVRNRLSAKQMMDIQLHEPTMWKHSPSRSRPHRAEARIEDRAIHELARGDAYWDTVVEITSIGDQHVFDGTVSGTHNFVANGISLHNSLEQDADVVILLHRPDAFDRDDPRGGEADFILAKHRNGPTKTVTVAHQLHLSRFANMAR

Protein RecA = biological target: T4, Protein RecA (Mycobacterium tuberculosis, UniProt P9WHJ3); test: Fluorescence Cell-Free Homogeneous Dose Retest to Identify Inhibitors of RecA-Intein Splicing Activity. [Related pubchem assays (depositor defined):AID2097, AID2223, AID489010, AID492950]; type: functional
T4 sequence (P9WHJ3 whole entry): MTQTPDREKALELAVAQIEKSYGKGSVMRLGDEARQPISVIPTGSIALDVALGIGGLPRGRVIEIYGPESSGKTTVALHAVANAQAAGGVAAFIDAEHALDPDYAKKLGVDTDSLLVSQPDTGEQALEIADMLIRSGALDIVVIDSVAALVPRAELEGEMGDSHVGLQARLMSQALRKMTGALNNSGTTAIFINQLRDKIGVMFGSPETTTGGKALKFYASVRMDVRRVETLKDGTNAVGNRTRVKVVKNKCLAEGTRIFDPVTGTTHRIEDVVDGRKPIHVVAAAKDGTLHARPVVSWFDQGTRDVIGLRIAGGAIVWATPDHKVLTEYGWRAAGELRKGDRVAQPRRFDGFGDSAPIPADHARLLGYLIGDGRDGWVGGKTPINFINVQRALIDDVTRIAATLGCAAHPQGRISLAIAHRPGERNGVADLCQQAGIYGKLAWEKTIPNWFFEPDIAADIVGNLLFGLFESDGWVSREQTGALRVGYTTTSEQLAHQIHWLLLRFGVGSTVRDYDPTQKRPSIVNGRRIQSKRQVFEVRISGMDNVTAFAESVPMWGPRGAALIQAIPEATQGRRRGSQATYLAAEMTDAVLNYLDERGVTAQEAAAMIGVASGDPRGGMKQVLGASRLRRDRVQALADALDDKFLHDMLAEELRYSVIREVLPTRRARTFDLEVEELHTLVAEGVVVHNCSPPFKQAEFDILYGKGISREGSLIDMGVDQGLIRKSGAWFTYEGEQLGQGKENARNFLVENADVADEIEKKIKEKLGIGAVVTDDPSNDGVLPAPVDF

[12] = Trypanosoma cruzi growth suppression in host cells – NIH3T3 host cells, beta-gal luminescence, confirmation (AID 2044); type: functional, cell-based;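 also: intracellular parasites grown in NIH/3T3 mouse fibroblasts as host cells; luminescent beta-galactosidase reporter signal from transgenic T. cruzi replicating inside host cells; inhibitors lower the luminescence signal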
[13] = NIH3T3 cell viability loss – ATP luminescence, mouse fibroblasts, counter-screen, dose response (AID 2010); type: functional, cell-based;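 also: cells exposed to compound for about 90 hours before reading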
[14] = reduction of Shn3 3'UTR-driven luciferase in osteoblasts – cell-based, Clone20 osteoblasts, firefly luciferase, cherry-picked, dose response (AID 624132); type: functional;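 also: firefly luciferase luminescence from reporter carrying the Shn3 3'UTR in osteoblasts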
[15] = loss of viability in HepG2 cells – cell-based, CellTiter-Glo, cherry-picked, cytotoxicity control for Shn3 inhibitor project, dose response (AID 624134); type: functional
[16] = non-specific 3'UTR reporter inhibition in Clone20-Shn3RL – cell-based, Renilla luciferase, cherry-picked, counter-screen for Shn3 inhibitor project, dose response (AID 624133); type: functional
[17] = blockers of HIV-1 envelope-mediated cell-cell fusion – cherry-pick, dose response (AID 652057); type: functional, cell-based
H9c2 = test: cells; type: functional, cell-based; details: Rattus norvegicus, H9c2, Myocardium;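 also: confirmatory concentration-response retest of ultra-high-throughput screening hits for modulation of myocardial damage; cell death induced by hydrogen peroxide oxidative stress; compound pretreatment for 60 min then peroxide exposure for 2 h; potency is for protecting the cells against peroxide damage rather than for killing them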
Genome polyprotein = Genome polyprotein (dengue virus type 2, UniProt P29990); test: flavivirus cap methylation enzyme inhibition – biochemical, confirmation dose response, primary screen (AID 588689); type: functional
[18] = tested on: Streptococcus sp. 'group A'; test: Streptococcus pyogenes SK(-)GAS viability under kanamycin – luminescence, BacTiterGlo, confirmation, counter-screen for streptokinase expression inhibitor project, dose response (AID 1900); type: functional, organism-based
Streptokinase A = biological target: T5, Streptokinase A (Streptococcus pyogenes serotype M1, UniProt P10520); test: viability-normalized secreted streptokinase activity reduction – plasminogen activation absorbance, OD405, dose response (AID 1914); type: functional, Streptococcus pyogenes M1 GAS;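 also: secreted streptokinase activity via plasminogen activation per viability signal from cell pellet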
T5 sequence (P10520 whole entry): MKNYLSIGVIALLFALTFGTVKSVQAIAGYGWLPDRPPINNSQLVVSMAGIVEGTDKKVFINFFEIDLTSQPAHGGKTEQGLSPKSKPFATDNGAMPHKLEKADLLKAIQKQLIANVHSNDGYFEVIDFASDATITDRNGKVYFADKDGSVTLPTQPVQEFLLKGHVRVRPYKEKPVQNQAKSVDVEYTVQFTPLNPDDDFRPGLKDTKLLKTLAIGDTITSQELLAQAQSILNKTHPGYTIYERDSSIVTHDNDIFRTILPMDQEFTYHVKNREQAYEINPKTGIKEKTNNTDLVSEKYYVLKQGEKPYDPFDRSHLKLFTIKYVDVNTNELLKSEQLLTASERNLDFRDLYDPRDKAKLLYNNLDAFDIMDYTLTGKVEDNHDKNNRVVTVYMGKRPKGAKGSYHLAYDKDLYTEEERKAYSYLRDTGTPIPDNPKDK

Streptococcus = test: GAS UMAA2166 growth inhibition – luminescence, BacTiterGlo, counter-screen for streptokinase expression inhibitor project, dose response (AID 1915); type: functional, organism-based;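 also: potency for reduction of bacterial viability or growth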

Luciferin 4-monooxygenase, sequence (P08659 whole entry): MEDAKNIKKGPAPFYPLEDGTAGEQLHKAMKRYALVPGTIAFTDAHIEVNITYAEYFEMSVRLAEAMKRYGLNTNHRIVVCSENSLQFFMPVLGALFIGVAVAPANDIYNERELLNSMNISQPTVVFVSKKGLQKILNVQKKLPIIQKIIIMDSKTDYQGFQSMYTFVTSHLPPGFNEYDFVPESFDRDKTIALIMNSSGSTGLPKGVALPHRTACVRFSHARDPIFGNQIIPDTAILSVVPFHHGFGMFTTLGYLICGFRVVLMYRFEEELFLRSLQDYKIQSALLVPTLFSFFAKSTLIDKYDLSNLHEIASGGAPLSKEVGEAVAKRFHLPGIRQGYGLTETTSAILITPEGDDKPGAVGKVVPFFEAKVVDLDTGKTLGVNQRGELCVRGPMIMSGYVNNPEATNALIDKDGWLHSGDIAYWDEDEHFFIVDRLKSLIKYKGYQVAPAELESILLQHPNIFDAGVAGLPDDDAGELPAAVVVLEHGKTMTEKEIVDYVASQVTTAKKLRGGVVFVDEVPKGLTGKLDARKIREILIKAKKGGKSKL
Genome polyprotein, sequence (P29990 2492-3391 limits assumed): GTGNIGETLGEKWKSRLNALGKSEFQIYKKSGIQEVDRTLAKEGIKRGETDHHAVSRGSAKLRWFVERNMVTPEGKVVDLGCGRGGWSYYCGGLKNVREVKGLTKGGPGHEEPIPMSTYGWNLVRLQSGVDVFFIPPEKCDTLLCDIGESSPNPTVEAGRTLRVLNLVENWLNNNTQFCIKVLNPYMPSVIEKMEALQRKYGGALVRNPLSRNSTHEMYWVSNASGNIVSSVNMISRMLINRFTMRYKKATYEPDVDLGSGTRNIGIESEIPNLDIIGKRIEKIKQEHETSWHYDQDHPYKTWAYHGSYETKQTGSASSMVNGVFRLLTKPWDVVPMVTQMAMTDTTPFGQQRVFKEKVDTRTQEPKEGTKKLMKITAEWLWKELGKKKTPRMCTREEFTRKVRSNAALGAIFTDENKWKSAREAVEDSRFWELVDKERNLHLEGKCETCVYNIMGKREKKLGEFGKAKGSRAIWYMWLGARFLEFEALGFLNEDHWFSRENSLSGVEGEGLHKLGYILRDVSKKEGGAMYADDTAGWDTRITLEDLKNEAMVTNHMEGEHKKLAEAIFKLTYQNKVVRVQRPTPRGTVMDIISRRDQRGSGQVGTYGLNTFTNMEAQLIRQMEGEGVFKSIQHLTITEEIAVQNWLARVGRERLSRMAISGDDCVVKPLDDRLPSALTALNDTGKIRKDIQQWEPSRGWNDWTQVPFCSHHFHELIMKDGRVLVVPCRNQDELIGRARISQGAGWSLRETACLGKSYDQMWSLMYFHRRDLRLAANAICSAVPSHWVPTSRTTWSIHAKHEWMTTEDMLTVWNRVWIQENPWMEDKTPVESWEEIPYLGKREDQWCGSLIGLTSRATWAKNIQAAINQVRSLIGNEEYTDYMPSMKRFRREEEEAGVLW
T2 sequence (P49327 whole entry): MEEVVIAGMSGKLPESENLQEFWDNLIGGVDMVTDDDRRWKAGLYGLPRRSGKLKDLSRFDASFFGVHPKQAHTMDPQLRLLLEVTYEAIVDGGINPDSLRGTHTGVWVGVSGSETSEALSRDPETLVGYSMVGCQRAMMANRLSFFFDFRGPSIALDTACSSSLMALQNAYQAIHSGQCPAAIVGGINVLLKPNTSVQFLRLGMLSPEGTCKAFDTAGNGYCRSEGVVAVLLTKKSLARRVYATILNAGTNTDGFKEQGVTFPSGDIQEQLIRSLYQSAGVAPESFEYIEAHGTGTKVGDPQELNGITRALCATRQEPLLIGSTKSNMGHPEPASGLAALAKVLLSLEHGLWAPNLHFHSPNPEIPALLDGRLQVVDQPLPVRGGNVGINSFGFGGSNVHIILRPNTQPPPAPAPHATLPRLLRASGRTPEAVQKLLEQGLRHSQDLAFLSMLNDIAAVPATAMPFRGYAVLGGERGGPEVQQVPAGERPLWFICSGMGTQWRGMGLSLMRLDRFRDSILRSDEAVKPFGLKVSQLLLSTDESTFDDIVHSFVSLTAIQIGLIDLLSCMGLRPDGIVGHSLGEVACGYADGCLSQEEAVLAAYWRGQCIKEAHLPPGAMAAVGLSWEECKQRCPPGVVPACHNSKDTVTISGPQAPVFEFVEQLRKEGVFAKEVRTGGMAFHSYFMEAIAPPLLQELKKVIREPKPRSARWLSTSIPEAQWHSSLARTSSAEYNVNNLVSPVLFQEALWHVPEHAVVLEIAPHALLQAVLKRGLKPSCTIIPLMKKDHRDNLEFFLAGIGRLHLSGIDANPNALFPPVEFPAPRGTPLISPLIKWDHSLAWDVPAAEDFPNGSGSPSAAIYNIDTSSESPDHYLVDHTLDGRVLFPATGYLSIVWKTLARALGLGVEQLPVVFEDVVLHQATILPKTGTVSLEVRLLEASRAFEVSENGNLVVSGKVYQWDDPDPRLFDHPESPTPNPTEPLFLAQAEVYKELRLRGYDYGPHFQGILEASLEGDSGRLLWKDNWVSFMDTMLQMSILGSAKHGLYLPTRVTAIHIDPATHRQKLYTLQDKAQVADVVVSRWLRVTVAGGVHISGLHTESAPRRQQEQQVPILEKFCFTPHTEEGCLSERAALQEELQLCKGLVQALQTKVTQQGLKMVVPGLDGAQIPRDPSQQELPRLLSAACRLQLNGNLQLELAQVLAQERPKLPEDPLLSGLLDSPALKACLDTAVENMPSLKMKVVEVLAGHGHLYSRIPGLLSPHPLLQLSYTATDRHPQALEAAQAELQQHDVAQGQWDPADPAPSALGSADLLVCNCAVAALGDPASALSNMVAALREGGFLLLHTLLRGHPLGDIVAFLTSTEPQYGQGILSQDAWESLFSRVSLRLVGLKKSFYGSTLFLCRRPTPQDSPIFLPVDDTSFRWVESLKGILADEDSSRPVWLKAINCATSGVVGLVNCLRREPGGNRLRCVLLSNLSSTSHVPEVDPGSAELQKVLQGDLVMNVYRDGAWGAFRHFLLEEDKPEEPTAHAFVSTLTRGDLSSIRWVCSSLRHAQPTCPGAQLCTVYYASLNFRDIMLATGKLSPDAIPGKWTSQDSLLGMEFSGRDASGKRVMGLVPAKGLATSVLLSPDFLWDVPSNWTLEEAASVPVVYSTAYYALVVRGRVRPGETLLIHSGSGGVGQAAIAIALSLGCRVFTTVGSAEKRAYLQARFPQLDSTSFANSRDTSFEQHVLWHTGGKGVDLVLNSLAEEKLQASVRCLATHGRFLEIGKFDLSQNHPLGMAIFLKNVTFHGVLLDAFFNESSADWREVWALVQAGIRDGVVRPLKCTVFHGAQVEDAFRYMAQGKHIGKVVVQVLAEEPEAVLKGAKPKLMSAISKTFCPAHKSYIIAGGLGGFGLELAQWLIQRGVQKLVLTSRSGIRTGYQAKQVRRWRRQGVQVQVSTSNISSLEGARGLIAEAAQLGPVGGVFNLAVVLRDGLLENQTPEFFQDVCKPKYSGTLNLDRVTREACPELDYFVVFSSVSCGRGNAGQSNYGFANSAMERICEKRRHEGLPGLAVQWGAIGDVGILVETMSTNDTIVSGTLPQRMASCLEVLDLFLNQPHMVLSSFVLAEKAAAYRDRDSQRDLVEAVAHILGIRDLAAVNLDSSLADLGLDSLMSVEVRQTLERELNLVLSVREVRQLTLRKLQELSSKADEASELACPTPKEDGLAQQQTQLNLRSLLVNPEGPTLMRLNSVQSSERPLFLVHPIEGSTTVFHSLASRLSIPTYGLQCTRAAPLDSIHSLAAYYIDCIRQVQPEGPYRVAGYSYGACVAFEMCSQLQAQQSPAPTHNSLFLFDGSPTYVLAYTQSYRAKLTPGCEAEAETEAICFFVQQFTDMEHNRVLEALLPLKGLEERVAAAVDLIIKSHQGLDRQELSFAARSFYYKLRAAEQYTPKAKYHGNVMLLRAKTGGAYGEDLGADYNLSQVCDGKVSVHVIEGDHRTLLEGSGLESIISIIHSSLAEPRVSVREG

SMILES: O=C(COc1ccc([N+](=O)[O-])cc1)NNC(=S)NC(=O)c1ccc(Br)cc1
- EC50 [1]: > 150 µM (inactive)
- EC50 [2]: 3.09 µM (active)

SMILES: O=C(NCc1ccccc1Cl)C1CCCN(c2nc3ccsc3c(=O)s2)C1 (stereo not given)
- IC50 [3]: 15.9 µM (not active)

SMILES: CCCCNC(=S)N/N=C/c1ccccc1F
- IC50 [3]: 5.17 µM (active)

SMILES: CC(C)(C)OC(=O)Nc1ncnc2c1ncn2C1OC(CO)C2OC(C)(C)OC21 (stereo not given)
- EC50 [4]: > 112 µM (not active)
- EC50 [5]: > 112 µM (not active)

SMILES: Cc1ccc(SCC(=O)OC(C)C(=O)NCc2ccccc2)cc1 (stereo not given)
- EC50 [4]: > 112 µM (not active)
- EC50 [5]: > 112 µM (not active)

SMILES: O=C(O)CCN(CC(=O)c1ccc(Cl)cc1)S(=O)(=O)c1ccc([N+](=O)[O-])cc1
- IC50 (Fatty acid synthase [6]): 5.21 µM (active)
- IC50 (Fatty acid synthase [7]): 4.83 µM (active)

SMILES: COc1ccc(C(=O)/C=C/Sc2nc3ccccc3o2)cc1
- EC50 [8]: 17.4 µM (active)
- EC50 [9]: 96.7 µM (active)
- EC50 (H4): 14.5 µM (active)
- CC50 [10]: 32.4 µM (active)
- AC50 [11]: > 380 µM (inactive)
- EC50 (Protein RecA): 54.4 µM (active)

SMILES: Cc1ccc(-c2nc3c(c(=O)[nH]c(=O)n3CC(C)C)n2CC(C)C)cc1[N+](=O)[O-]
- EC50 [12]: 1.41 µM (active)
- IC50 [3]: 16.1 µM (not active)
- EC50 [13]: > 30 µM (not active)

SMILES: Cn1c(NN)nc2sc3c(c2c1=O)CCC3
- EC50 [1]: > 150 µM (inactive)

SMILES: O[C@@H]1CN(Cc2ccc(-n3cccn3)cc2)CC[C@H]1N1CCN(c2ccccc2F)CC1
- AC50 [14]: 2.13 µM (active)
- AC50 [15]: 68 µM (active)
- AC50 [16]: 2.39 µM (active)

SMILES: C=C(C)[C@@H]1C2=CC(C(=O)OC)=C(C[C@H](C(=C)C)[C@H]3O[C@H]3C3=C[C@H]1OC3=O)O2
- AC50 [14]: 8.16 µM (active)
- AC50 [15]: 13.3 µM (active)
- AC50 [16]: 5.23 µM (active)

SMILES: CC(=O)c1cnc2cc(-c3cccc(Br)c3)nn2c1C
- EC50 [1]: > 150 µM (inconclusive)
- EC50 [2]: > 38 µM (not active)

SMILES: COc1ccc([Si](C)(C)[C@H]2[C@H](CCO)O[C@@]3(C(=O)N(Cc4cccc(N5CCOC5=O)c4)c4ccccc43)[C@@H]2C)cc1
- AC50 [17]: 17.3 µM (active)

SMILES: CCOC(=O)CNS(=O)(=O)c1cc(-c2nnc(O)c3ccccc23)ccc1C
- EC50 [4]: > 112 µM (not active)
- EC50 [5]: 7.49 µM (active)
- IC50 (H9c2): > 79 µM (inactive)

SMILES: O=C(O)/C=C/C(=O)Nc1ccc(C2(c3ccc(NC(=O)/C=C/C(=O)O)cc3)c3ccccc3-c3ccccc32)cc1
- AC50 [11]: 13.3 µM (active)
- EC50 (Protein RecA): 2.88 µM (active)
- IC50 (Genome polyprotein): 18.1 µM (active)

SMILES: CCN(C(=O)CSc1nnc(C)n1-c1ccccc1)C1CCS(=O)(=O)C1 (stereo not given)
- EC50 [4]: > 112 µM (not active)
- EC50 [5]: > 112 µM (not active)

SMILES: O=C(CSc1nc(Nc2ccccc2)nc(N2CCOCC2)n1)Nc1cc(Cl)ccc1O
- EC50 [18]: 6.55 µM (active)
- EC50 (Streptokinase A): 30.7 µM (active)
- CC50 [10]: 17 µM (active)
- EC50 (Streptococcus): 18.5 µM (active)

SMILES: CCCCn1c(-c2ccc(C(C)(C)C)cc2)nc2cc3nc(O)c(C(C)C)nc3cc21
- CC50 [10]: 32.7 µM (active)

SMILES: CCN(CC(O)Cn1c2ccccc2c2ccccc21)S(=O)(=O)c1ccc(F)cc1 (stereo not given)
- IC50 [3]: 6.55 µM (not active)

SMILES: O=C(NC1CCCCC1)C12CC3CC(CC(Cl)(C3)C1)C2
- EC50 [4]: > 112 µM (not active)
- EC50 [5]: > 112 µM (not active)

SMILES: COC(=O)c1sc(N2C(=O)C(O)=C(C(=O)c3ccc(C)o3)C2c2ccc([N+](=O)[O-])cc2)nc1C (stereo not given)
- EC50 [18]: 4.55 µM (active)
- EC50 (Streptokinase A): > 150 µM (not active)
- EC50 (Streptococcus): 6.86 µM (active)
- IC50 (Genome polyprotein): 38.5 µM (active)

SMILES: NC1=NC2(CCC(c3ccccc3)CC2)n2c(nc3ccccc32)N1 (stereo not given)
- CC50 [10]: 29.3 µM (active)

From ChEMBL document CHEMBL1201862, “PubChem BioAssay data set” (2004)
